In patent EP3578559B1, “DYE FOR FLUORESCENT STAINING OF STRATUM CORNEUM, MANNER OF ITS SYNTHESIS AND APPLICATION IN MICROSCOPY, INCLUDING IDENTIFICATION OF ROUTES OF SUBSTANCES PENETRATION TO THE SKIN AND ASSESSMENT OF STRUCTURAL DISORDERS OF THIS LAYER” (Gdanski Uniwersytet Medyczny, priority 2018, dated 2019):
Entries after “also recorded” stand apart in the source; their conditions may differ. Like-named read-outs stand apart in the source and are kept apart here.

How the values were obtained:
[1] = Octanol/water partition coefficient (logP), experimentally assigned; conditions: for octanol/water division ratio: ratio of concentrations of the dye in octanol/water
stratum corneum = experiment: Fluorescent microscopy staining of stratum corneum of human skin ex vivo
Experimental: To obtain microscopic images of stratum corneum in a fluorescent microscope (Nikon Eclipse 50, Japan; the mercury lamp; the filter for wavelength: 330-380 nm; software for data acquisition NIS Elements AR 3.2.) Standard methodology was applied. A fragment of human skin ex vivo (1 cm x 1 cm) was subject to heat separation procedure (temperature 60 °C; 30 seconds) in order to separate epidermis (including stratum corneum) from the dermis. Fragments of the epidermis were placed on a microscopic glass, fluorescent dyes were applied and then incubated in thermostat for 10 minutes at 37 °C. After this time, the excess of dyes was removed by the use of laboratory absorption blotting paper and images of microscopic magnification were recorded in 10 x magnification of the lens, using the exposure time of 15-600 ms.

[2] = Fluorescence optical properties of the dye (Stokes shift, absorption/emission); assay type: physicochemical
[3] = commercial dye; cited from earlier work
[4] = post application of water / hydrophilic compounds, 10x

In the case of `CC[N+]1(CC)CN2C(=N1)C(C(=O)[O-])=Cc1ccccc12` [P4], the octanol/water division ratio [1] is reported as 0,01, the logP (physchem) is reported as -1.9 and the “characterization of hydrophilicity/lipophilicity with regard to diffusion to stratum corneum” value (stratum corneum; on the basis of the conducted research) is reported as “too hydrophilic”. The “staining of the lipids inside the lipid matrix or corneocytes proteins” value (stratum corneum; stratum corneum structures) was “lack of staining”.
With `CCCCCCOC(=O)c1ccccc1-c1c2ccc(=[N+](CC)CC)cc-2oc2cc(N(CC)CC)ccc12` [RBHE, Rhodamine hexylester] the “microscope image quality of stained structures” value (stratum corneum; after application of siloxane with a cyclic structure, compared with SAFQ8MeAKT, 10x) was “not as explicit”, the staining of canyons (stratum corneum; lipophilic compounds (siloxane D4), 10x) was “does not stain canyons so vividly” and the staining of canyons (stratum corneum; [4]) was “canyons are not visible; also recorded: does not dye canyons”.
With `CC[N+]1(CC)CN2C(=N1)C(C(=O)ON1C(=O)CCC1=O)=Cc1ccc(C)cc12.[Cl-]` [SAFQ8MeAKT, 4-((2,5-dioxopyrrolidin-1-yloxy)carbonyl)-2,2-diethyl-8-methyl-1,2-dihydro-[1,2,4]triazolo[4,3-a]quinolin-2-ium chloride] the octanol/water division ratio [1] was 0,37, the “greater lipophilicity than P4 dye” value ([1]; relative to P4 dye) was “approx. 40 times” and the logP (physchem) was -0.43. The staining of corneocytes (stratum corneum; 10x) was “staining of the inside of corneocytes”, the staining of canyons (stratum corneum; [4]) was “canyons are stained” and the Stokes shift [2] was 95 nm. It also gave a characteristic absorption [2] of 365 nm and a characteristic emission [2] of 460 nm.
For `CCN(CC)c1ccc2c(-c3ccc(S(=O)(=O)O)cc3S(=O)(=O)[O-])c3ccc(=[N+](CC)CC)cc-3oc2c1` [SRB, Sulforhodamines B], the characteristic absorption [3] is given as 565 nm, the characteristic emission [3] is given as 590 nm and the staining of corneocytes (stratum corneum; 10x) is given as “noticeably stains corneocytes”. The staining of canyons (stratum corneum; dye alone (Fig. 11), 10x) was “does not dye the canyons”.
